molecular target: T1, human 15-PGDH (Homo sapiens, UniProt P15428); test: Substrate (PGE2) and cofactor (NAD+) titrations, mechanism of action, global fitting; format: biochemical; conditions: PGE2, absence of inhibitor
T1 construct: comprising residues 3–256 of the human HPGD gene (GenBank identifier: 1203982); His6 (GHHHHHH, behind the TEV site) (C, cleaved yes); made in house; host or cells: E. coli BL21(DE3)-R3
T1 sequence (P15428 3-256): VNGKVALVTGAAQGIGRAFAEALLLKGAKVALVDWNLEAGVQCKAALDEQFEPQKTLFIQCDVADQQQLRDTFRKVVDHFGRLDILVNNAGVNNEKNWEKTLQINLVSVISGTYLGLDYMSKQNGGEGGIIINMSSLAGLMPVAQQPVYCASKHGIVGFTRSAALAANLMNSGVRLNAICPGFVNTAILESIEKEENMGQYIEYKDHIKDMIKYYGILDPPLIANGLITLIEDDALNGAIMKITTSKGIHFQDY
Procedure: Kinetic studies were performed in 100 mM Tris buffer pH 8.0, containing 0.01% Tween-20 and 10 nM 15-PGDH enzyme. […] All inhibitor compounds were dissolved in 10% (v/v) DMSO at varying concentrations from which they were applied at 1∶5 ratio (resulting in a final concentration of 2% (v/v) DMSO in all assays). For each experiment an aliquot of purified enzyme was thawed freshly and pre-diluted to 10 µM in buffer I (5 mM Tris/HCl, pH 8.0, 150 mM NaCl, 0.01% Tween-20). All experiments were performed in white 384-well PCR microplates (Bio-Rad Laboratories, Inc.) in final assay volumes of 20 µL. Twelve-point compound titrations were set up from serially diluted stock solutions in 10% (v/v) DMSO. […] The initial rates recorded in compound titrations were plotted against -log[compound], and non-linear regression (Levenberg-Marquardt) fitting of the dose-response curve to the Hill equation [47] was performed to derive the IC50, using PRISM 5.0 (GraphPad Software, Inc.). For substrate/cofactor titrations, curves with initial rates plotted against the concentration of substrate or cofactor were fitted to the Michaelis-Menten equation, to derive maximal activities, V max, and Michaelis constants, K m. Fitting qualities were judged from the goodness of fit (R^2>0.98).

Row | catalytic efficiency, k cat/K m | Structure (SMILES)
1 | 2.5·10^6 | CCCCC[C@H](O)/C=C/[C@H]1[C@H](O)CC(=O)[C@@H]1C/C=C\CCCC(=O)O [PGE2, 15-hydroxyprostaglandin type-E2, reference compound]

same assay, conditions: cofactor, absence of inhibitor; 30 µM PGE2

Row | Titration of NAD^+ K m [µM] | Titration of NAD^+ V max [µmol/(min×mg)] [µmol/min/mg] | Titration of NAD^+ k cat/K m[×10^6] | Titration of NAD^+ k cat[1/sec] [s⁻¹] | Structure (SMILES)
2 | 15.8 ± 0.9 | 21.2 | 0.7 ×10^6 | 10.3 ± 0.1 | NC(=O)c1ccc[n+]([C@@H]2O[C@H](COP(=O)([O-])OP(=O)(O)OC[C@H]3O[C@@H](n4cnc5c(N)ncnc54)[C@H](O)[C@@H]3O)[C@@H](O)[C@H]2O)c1 [NAD^+]

same assay, conditions: oxidation of PGE2, absence of inhibitor

Row | catalytic constant, k cat | Structure (SMILES)
3 | about 14 per second | CCCCC[C@H](O)/C=C/[C@H]1[C@H](O)CC(=O)[C@@H]1C/C=C\CCCC(=O)O [PGE2, 15-hydroxyprostaglandin type-E2, reference compound]

same assay, conditions: substrate, absence of inhibitor

Row | Titration of PGE2 K m [µM] | Titration of PGE2 V max[µmol/(min×mg)] [µmol/min/mg] | Titration of PGE2 k cat/K m[×10^6] | Titration of PGE2 k cat[1/sec] [s⁻¹] | Structure (SMILES)
4 | 5.5 ± 0.6 | 28.1 | 2.5 ×10^6 | 13.6 ± 0.3 | CCCCC[C@H](O)/C=C/[C@H]1[C@H](O)CC(=O)[C@@H]1C/C=C\CCCC(=O)O [PGE2, 15-hydroxyprostaglandin type-E2, reference compound]

molecular target: T1, human 15-PGDH; test: qHTS and 24-point re-test: fluorescence assay of NAD+ reduction to NADH on PGE2 oxidation (PubChem AID 894); format: biochemical; conditions: potency in 24-point titrations on re-test; 20 nM 15-PGDH, 1 mM NAD+, 30 µM PGE2, pH 8.0
Procedure: The assay was miniaturized to a 4-µL volume in 1536-well format: enzyme (3 µL) was dispensed first, followed by a pintool transfer of library compounds dissolved in DMSO. After equilibration, a substrate dispense (1 µL) initiated the enzymatic reaction (see Materials and Methods, for detailed protocol description). […] Hits associated with low-efficacy (<40% maximum inhibition), incomplete curves, as well as those displaying only a single-point inhibition at the top concentration tested were eliminated from further consideration. Similarly, the collection of real-time kinetic data allowed the autofluorescence of each compound to be evaluated by comparing the initial fluorescence read at top concentration with the mean value of uninhibited assay controls: compounds whose top-concentration initial well fluorescence exceeded six standard deviations over the mean were flagged as potential autofluorescent artifacts, [28] (see example in supplementary information Figure S1E). The complete screening and followup results are available in PubChem (PubChem Assay ID 894).
The enzymatic reaction was performed in 50 mM Tris-HCl pH 8.0, containing 0.01% Tween 20. […] The high-throughput screen was performed on a fully integrated robotic system (Kalypsys Inc, San Diego, CA) as described elsewhere. Library compounds, arrayed as seven-point inter-plate concentration series, were screened from the lowest (3.5 nM) to the highest (57.5 µM) concentration, with plates containing DMSO only, serving to note any systematic drifts in the signal, interspersed evenly throughout the screen (approximately every 50 plates). Briefly, 3 µL of reagents were dispensed into 1536-well Greiner black solid-bottom assay plates using integrated nanoliter solenoid-technology dispensers. Compounds and controls (23 nL) were transferred via Kalypsys pintool equipped with 1,536-pin array (10-nL slotted pins; V&P Scientific, Palo Alto, CA). After a 15-minute incubation (to allow for interaction between compound and enzyme), a 1-µL substrate addition step initiated the reaction. Kinetic data were collected on a ViewLux High-throughput CCD imager (Perkin-Elmer) equipped with standard UV fluorescence optics (exc. 340 nm, em. 450 nm).
Starting fluorescence intensity and the change in fluorescence over the two-minute initial rate period were recorded for every well. Screening data were normalized against no-enzyme (64 wells, columns 3 and 4) and no-compound (32 wells located in column 1) controls, and concentration-response relationships were derived as described previously. A four-parameter Hill equation [47] was fitted to the concentration-response data using publicly available algorithms (http://www.ncgc.nih.gov/pub/openhts/curvefit/).

Row | qHTS IC50 [nM] | Structure (SMILES)
5 | Inactive | COc1ccc(N2CCN(C(=O)c3ccc(CSc4ccccc4)cc3)CC2)cc1 [Compound 6]
6 | Inactive | Fc1ccccc1-c1nnc(SCCc2ccncc2)n1C1CC1 [Compound 24]
7 | inactive | COCCNC(=O)C1CSC(c2ccccc2)N1C(=O)c1ccc(OC)c(OC)c1 (stereo not shown) [Compound 28]
8 | inactive | CCNC(=S)NN=Cc1cccn1-c1ccccc1 [Compound 33]
9 | Inactive | Cc1c(Cl)cccc1NC(=O)CNC(=O)c1cncn1-c1ccc(F)cc1 [Compound 38]
10 | inactive | CC(C)(C)c1ccc(C(=O)O/N=C(\N)c2ccc(Cl)cc2)cc1 [Compound 39]
11 | Inactive | Cc1ccc2nc(SCC(=O)N3CCCC[C@@H]3C)c(C#N)cc2c1 [Compound 49]

same assay, conditions: potency in 24-point titrations on re-test; 20 nM 15-PGDH, 1 mM NAD+, 30 µM PGE2, pH 8.0; read-out: qHTS IC50

Row | IC50 [nM] | Structure (SMILES)
12 | 282 | CC(=O)Nc1ccc(NC(=O)CSc2nc3c(cc2C#N)CCC3)cc1 [Compound 10]
13 | 63 | C=C[C@@]1(C)CCCC[C@H]1CC#CCCCC [Compound 15]
14 | 708 | COc1ccc2ccccc2c1C=C1N=C(c2ccc(C)c(C)c2)OC1=O [Compound 19]
15 | 398 | COC(=O)CN(C)C(=O)c1cc(Cl)c(OCC(C)C)c(OC)c1 [Compound 21]
16 | 891 | CC1CCN(C(=O)CCc2ccc(Oc3cc([N+](=O)[O-])cc([N+](=O)[O-])c3)cc2)CC1 [Compound 22]
17 | 12600 | Cc1ccc(-c2nc3c4cnn(-c5cccc(Cl)c5)c4ncn3n2)cc1 [Compound 25]
18 | 11200 | Cc1ccc(CN(c2ccc(C(=O)N3CCc4ccccc4C3)cc2)S(C)(=O)=O)cc1 [Compound 26]
19 | 15800 | COc1ccc(OC)c(C=Cc2ccc(N3C(=O)C4CC=C5C(c6cc(Br)c(O)c(OC)c6)C6=C(CC5C4C3=O)C(=O)C=C(C)C6=O)cc2)c1 (stereo not shown) [Compound 27]
20 | 1410 | O=C(CSc1n[nH]c(-c2ccccc2)n1)Nc1ncc(Br)cc1Br [Compound 40]
21 | 5010 | COc1ccc(NC(=O)c2sccc2S(=O)(=O)N2CCCCC2)c(OC)c1 [Compound 41]
22 | 398 | O=C(C=Cc1ccco1)Nc1cc(Cl)c(O)c(Cl)c1 [Compound 43]
23 | 1000 | Cc1ccc2nc(Cl)c(CO)cc2c1 [Compound 46]
24 | 159 | Cc1ccccc1OCc1nnc(SCC(N)=O)o1 [Compound 47]
25 | 6310 | O=C(O)c1cccc(Oc2cc(Cl)cc(Cl)c2)c1 [Compound 51]
26 | 14100 | O=C(O)c1ccc(Cl)c(Cl)c1Br [Compound 52]
27 | 17800 | O=C(NCCc1ccc(Cl)cc1)C1CCC(CNc2c(N3CCCCC3)c(=O)c2=O)CC1 (stereo not shown) [Compound 53]
28 | 15800 | COC(=O)CSc1nc2cc(Br)c(C)nc2[nH]1 [Compound 58]

Row | IC50 [nM] | Structure (SMILES)
29 | 447 | CC1=NOC(=O)C1=Cc1ccc(-c2cc(Cl)ccc2Cl)o1 [Compound 62]
30 | 447 | O=C(COc1ccc(F)cc1Cl)Nc1cccc(C(=O)NC2CC2)c1 [Compound 63]
31 | 1120 | CC1=NOC(=O)C1=Cc1ccc(-c2ccc(Cl)cc2)o1 [Compound 64]
32 | 398 | CCCCc1ccc(NC(=O)C2=CN3CCS(=O)(=O)N=C3C=C2)cc1 [Compound 67]
33 | 447 | CCCCCCCCCOC(=O)c1ccc2c(c1)N(CCCS(=O)(=O)O)/C(=C\C=C\c1n(CCCS(=O)(=O)O)c3cc(C(=O)OCCCCCCCCC)ccc3[n+]1CC)N2CC [Compound 68]
34 | 562 | COc1ccc(OC)c(NC(=O)Cc2cc(Cl)ccc2OC)c1 [Compound 69]
35 | 3160 | CCc1nc(N2CCN(C(=O)c3ccco3)CC2)c(C#N)c2c1COC(C)(C)C2 [Compound 70]
36 | 126 | FC(F)(F)c1ccc(-c2nnco2)cc1 [Compound 73]
37 | 3980 | CCNC(=O)c1ccc(CSc2ccc(Cl)cc2)cc1 [Compound 74]
38 | 2510 | N#Cc1c(NC(=O)COC(=O)C23CC4CC(CC(C4)C2)C3)sc2c1CCCCC2 [Compound 75]
39 | 112 | COc1cccc(NC(=O)N2CCC3(CC2)C(=O)N(CC(=O)NCc2ccc4c(c2)OCO4)CN3c2ccccc2)c1 [Compound 76]
40 | 14100 | Cc1ccc(NC(=O)COc2cccc(C=C(C#N)C(=O)Nc3cccc(Cl)c3C)c2)cc1C [Compound 77]
41 | 1580 | COc1ccc(/C=C2\SC(=O)N(CCNC(=O)c3ccc(Br)o3)C2=O)cc1OC [Compound 81]
42 | 501 | CN1CCCc2cccc(C[S+]([O-])c3ncc[nH]3)c21 (stereo not shown) [Compound 82]
43 | 1260 | CC(C)CC=NCCCCCCN=CCC(C)C [Compound 83]
44 | 1000 | COc1ccc(C(=O)c2ccccc2O)c(O)c1 [Compound 85]
45 | 45 | O=c1oc2c(O)c(O)cc3c(=O)oc4c(O)c(O)cc1c4c23 [Compound 86]

same assay, conditions: re-test of qHTS hits, Figure 2; read-out: IC50 from re-testing

Row | IC50 [nM] | Structure (SMILES)
46 | > 10000 | COc1ccc(N2CCN(C(=O)c3ccc(CSc4ccccc4)cc3)CC2)cc1 [Compound 6]

molecular target: T1, human 15-PGDH; test: Differential scanning fluorimetry (DSF), thermal stabilization; format: binding; conditions: not given
Procedure: A correlation between the ΔTm and the inhibitory potency has been shown in a number of protein-ligand systems, particularly for kinases [32]–[34].
Studies to assess the thermal stability of human 15-PGDH in presence of compounds were performed as described previously, with variations. Briefly, the protein was diluted to a final assay concentration of 1 µM in 100 mM Tris buffer pH 8.0, containing 0.01% Tween-20 and 1∶1000 SYPRO orange dye (Invitrogen). […] Compounds were added at a ratio of 1∶5 from appropriate stock solutions in 10% (v/v) DMSO to comprise either 50 or 250 µM final concentrations. Heat denaturation curves were recorded using a RT-PCR instrument (Mx3005p, Agilent) applying a temperature gradient of 2°C/min. […] 2.5 (ftp://ftp.sgc.ox.ac.uk/pub/biophysics) and PRISM 5.0 (GraphPad Software, Inc.).

Row | ΔTm in the presence of NAD+ [°C] | ΔTm in the presence of NADH | Structure (SMILES)
47 | 2.4 | no stabilization | CCCCC[C@H](O)/C=C/[C@H]1[C@H](O)CC(=O)[C@@H]1C/C=C\CCCC(=O)O [PGE2, 15-hydroxyprostaglandin type-E2, reference compound]

same assay, conditions: in words

Row | stabilization without cofactor | Structure (SMILES)
48 | failed to stabilize | CCCCC[C@H](O)/C=C/[C@H]1[C@H](O)CC(=O)[C@@H]1C/C=C\CCCC(=O)O [PGE2, 15-hydroxyprostaglandin type-E2, reference compound]

same assay, conditions: pH 8.0; ligand-free Tm 41.2±0.3°C

Row | Tm of 15-PGDH in the presence of cofactor [°C] | Structure (SMILES)
49 | 52.5±0.4 | NC(=O)C1=CN([C@@H]2O[C@H](COP(=O)(O)OP(=O)(O)OC[C@H]3O[C@@H](n4cnc5c(N)ncnc54)[C@H](O)[C@@H]3O)[C@@H](O)[C@H]2O)C=CC1 [NADH, reference compound]

same assay, conditions: versus ligand-free 15-PGDH, pH 8.0

Row | increase of stability by cofactor | Structure (SMILES)
50 | more than 10 °C | NC(=O)C1=CN([C@@H]2O[C@H](COP(=O)(O)OP(=O)(O)OC[C@H]3O[C@@H](n4cnc5c(N)ncnc54)[C@H](O)[C@@H]3O)[C@@H](O)[C@H]2O)C=CC1 [NADH, reference compound]
51 | more than 4 °C | NC(=O)c1ccc[n+]([C@@H]2O[C@H](COP(=O)([O-])OP(=O)(O)OC[C@H]3O[C@@H](n4cnc5c(N)ncnc54)[C@H](O)[C@@H]3O)[C@@H](O)[C@H]2O)c1 [NAD^+]

Reference: paper PMC2970562, “High-Affinity Inhibitors of Human NAD^+-Dependent 15-Hydroxyprostaglandin Dehydrogenase: Mechanisms of Inhibition and Structure-Activity Relationships” (PLoS ONE, 2010)
